Test results: patent publication US20260091020A1, “TREATMENT OF ACUTE CANNABINOID OVERDOSE” (Anebulo Pharmaceuticals, Inc., priority 2022, published 2026)
Entries after “also recorded” stand apart in the source; their conditions may differ.

How the values were obtained:
[1] = Safety/tolerability in the phase 2 THC challenge study (50 and 100 mg Compound 1); settings: for QTcF, mean increase from baseline: 3 hours post dose, 3.1 ms in placebo group
[2] = system: central nervous system effects of THC; test: THC challenge PD, 21-30 mg THC with 10 or 30 mg Compound 1, simultaneous or 1 hr delay (Examples 4 and 9); assay type: in vivo, human
Method: FIG. 14 depicts a randomized, double-blind, placebo controlled study. Left to right. (a) 14 Adult volunteers ages 18-45 are selected; (b) A single oral dose and 24-hour assessment is conducted for groups (1) 21 mg THC+placebo; and (2) 21 mg THC+30 mg ANEB-001 (c) 7 to 14 day follow up is conducted. Primary endpoints include inhibition of central nervous system effects of THC using (a) visual analog scale “feeling high”; (b) visual analog scale “alertness”; (c) body sway; (d) heart rate. Secondary endpoints include additional efficacy metrics, safety/tolerability, PK, and PK/PD correlations.
FIG. 15 depicts a randomized, double-blind, placebo controlled study. Left to right: (a) 11 Adult volunteers ages 18-45 are selected; (b) A single oral dose and 24-hour assessment is conducted for groups (1) 21 mg THC+placebo; and (2) 21 mg THC+10 mg ANEB-001 (c) 7 to 14 day follow up is conducted. Primary endpoints include inhibition of central nervous system effects of THC using (a) visual analog scale “feeling high”; (b) visual analog scale “alertness”; (c) body sway; (d) heart rate. Secondary endpoints include additional efficacy metrics, safety/tolerability, PK, and PK/PD correlations.
Following the general methods of Example 2, the study design was adjusted such that groups received either (a) THC (21 mg)+placebo or (b) THC (21 mg)+Compound 1 (30 mg) (FIG. 14) or either (a) THC (21 mg)+placebo or (b) THC (21 mg)+Compound 1 (10 mg) (FIG. 15). […] Summary of pharmacokinetics of THC with 30 mg ANEB-001 challenge (FIG. 18A and FIG. 18B), AUC after 5 hours (FIG. 18C), AUC last (FIG. 18D) and Cmax (FIG. 18E).
Following the general methods of Examples 1-3, the study design was adjusted such that Compound 1 was administered 1 hour after administration of THC. Groups received either (a) THC (21 mg)+Compound 1 (10 mg); (b) THC […]+Compound 1 (10 mg); (c) THC (30 mg)+Compound 1 (10 mg); or (d) THC (30 mg)+Compound 1 (10 mg). […] Endpoints were then evaluated as generally described in Example 1, and PK properties were measured as shown for the general methods of Example 2.

[3] = 50 mg Compound 1 group (20 per arm)
[4] = 100 mg Compound 1 group (20 per arm)
[5] = 30 mg THC, 10 mg ANEB-001, 1 hr Delay, p = 0.0007
[6] = 30 mg THC, 10 mg ANEB-001, 1 hr Delay, p = <0.0001
[7] = 21-30 mg THC, 10 mg ANEB-001, 1 hr Delay (pooled), p = <0.0001

In the case of `CC(C)(C)NC(=O)N1CC(O[C@H](c2ccc(Cl)cc2)c2ccccc2C(F)(F)F)C1` [Compound 1, (R)—N-(tert-butyl)-3-((4-chlorophenyl)(2-(trifluoromethyl)phenyl)methoxy)azetidine-1-carboxamide], the VAS nausea ([1]; 10.5 mg THC + 50 or 100 mg Compound 1 vs THC/placebo) is reported as “No significant difference overall between treatment groups”, the “Depressed mood, number of subjects” value [1, 3] is reported as 1 subject and the “Feeling hot, number of subjects” value [1, 3] is reported as 6 subjects. For the same compound, the “Hyperhidrosis, number of subjects” value [1, 3] was 6 subjects, the “Nausea, number of subjects” value [1, 3] was 13 subjects and the “Vomiting, number of subjects” value [1, 3] was 1 subject. The “QTcF, mean increase from baseline” value ([1]; 50 mg Compound 1 group) was 7.9 ms, the “Heart rate, mean increase following dosing (up to)” value ([1]; 50 mg and 100 mg Compound 1 group, placebo group up to ~6 bpm) was 3-4 bpm and the “Depressed mood, number of subjects” value [1, 4] was 2 subjects. The “Feeling hot, number of subjects” value [1, 4] was 4 subjects, the “Hyperhidrosis, number of subjects” value [1, 4] was 7 subjects and the “Nausea, number of subjects” value [1, 4] was 8 subjects. For the same compound, the “Vomiting, number of subjects” value [1, 4] was 6 subjects, the “QTcF, mean increase from baseline” value ([1]; 100 mg Compound 1 group) was 9.9 ms and the “Increase in total bilirubin compared to baseline” value ([1]; 50 and 100 mg Compound 1 groups, 24 h post dose, 1.4 mol/L in placebo group) was 5. The “Severity of adverse events” value ([1]; 50 and 100 mg Compound 1 with 10.5 mg THC) was “mild and transient except in the case of one subject in the 50 mg Compound 1 group who experienced moderate nausea and vomiting; also recorded: transient and of mild severity, except one case of vomiting of moderate severity in the 50 mg Compound 1 treatment group”, the “AESI: systolic blood pressure increase compared to baseline” value ([1]; one subject, 100 mg Compound 1 group) was greater than 30 mmHg and the “Overall safety and tolerability” value ([1]; single doses of 50 and 100 mg Compound 1) was “safe and well tolerated by most subjects”. For the same compound, the “Body Sway, Alertness and Feeling High vs. placebo” value ([2]; 21 mg THC + 30 mg ANEB-001) was “improvements in Body Sway (FIG. 16A), Alertness (FIG. 16B) and Feeling High (FIG. 16C)”, the “VAS Feeling High log(mm)” value ([2]; 21 mg THC, 10 mg ANEB-001, 1 hr Delay, p = 0.0380) was −0.5545 log(mm) and the “Body Sway (mm)” value ([2]; 21 mg THC, 10 mg ANEB-001, 1 hr Delay, p = 0.0406) was −3%. The “VAS External Perception log(mm)” value ([2]; 21 mg THC, 10 mg ANEB-001, 1 hr Delay, p = 0.0530) was “Modified”, the “Heart Rate (supine) (bpm)” value ([2]; 21 mg THC, 10 mg ANEB-001, 1 hr Delay, p = 0.0589) was 10.3 bpm and the “VAS Alertness (mm)” value ([2]; 21 mg THC, 10 mg ANEB-001, 1 hr Delay, p = 0.4834) was 4.4 mm. For the same compound, the “Responder Rate (VAS Feeling High)” value ([2]; 21 mg THC, 10 mg ANEB-001, 1 hr Delay, p = <0.0001) was “Reversed”, the “VAS Feeling High log(mm)” value ([2]; 21 mg THC, 10 mg ANEB-001, Simultaneous, p = 0.0001) was −0.7072 log(mm) and the “Responder Rate (VAS Feeling High)” value ([2]; 21 mg THC, 10 mg ANEB-001, Simultaneous, p = 0.0002) was “Reversed”. The “VAS External Perception log(mm)” value ([2]; 21 mg THC, 10 mg ANEB-001, Simultaneous, p = 0.0037) was “Reversed”, the “VAS Alertness (mm)” value ([2]; 21 mg THC, 10 mg ANEB-001, Simultaneous, p = 0.0047) was 9.2 mm and the “Body Sway (mm)” value ([2]; 21 mg THC, 10 mg ANEB-001, Simultaneous, p = 0.0069) was −29.3%. The “VAS Internal Perception log(mm)” value ([2]; 21 mg THC, 10 mg ANEB-001, Simultaneous, p = 0.0120) was “Reversed”, the “Heart Rate (supine) (bpm)” value ([2]; 21 mg THC, 10 mg ANEB-001, Simultaneous, p = 0.7264) was −1.1 bpm and the “VAS External Perception log(mm)” value ([2]; 21 mg THC, 30 mg ANEB-001, Simultaneous, p = 0.0010) was “Reversed”. The “VAS Alertness (mm)” value ([2]; 21 mg THC, 30 mg ANEB-001, Simultaneous, p = 0.0013) was 10.8 mm, the “VAS Internal Perception log(mm)” value ([2]; 21 mg THC, 30 mg ANEB-001, Simultaneous, p = 0.0016) was “Reversed” and the “Responder Rate (VAS Feeling High)” value ([2]; 21 mg THC, 30 mg ANEB-001, Simultaneous, p = 0.0019) was “Reversed”. For the same compound, the “Body Sway (mm)” value ([2]; 21 mg THC, 30 mg ANEB-001, Simultaneous, p = 0.0023) was −30.6%, the “Heart Rate (supine) (bpm)” value ([2]; 21 mg THC, 30 mg ANEB-001, Simultaneous, p = 0.4730) was −2.2 bpm and the “VAS Feeling High log(mm)” value ([2]; 21 mg THC, 30 mg ANEB-001, Simultaneous, p = <0.0001) was −0.7856 log(mm). The “VAS External Perception log(mm)” value ([2]; 21 mg THC, 10-30 mg ANEB-001, Simultaneous (pooled), p = 0.0004) was “Reversed”, the “Responder Rate (VAS Feeling High)” value ([2]; 21 mg THC, 10-30 mg ANEB-001, Simultaneous (pooled), p = 0.0005) was “Reversed” and the “VAS Alertness (mm)” value ([2]; 21 mg THC, 10-30 mg ANEB-001, Simultaneous (pooled), p = 0.0007) was 15.6 mm. For the same compound, the “VAS Internal Perception log(mm)” value ([2]; 21 mg THC, 10-30 mg ANEB-001, Simultaneous (pooled), p = 0.0012) was “Reversed”, the “Body Sway (mm)” value ([2]; 21 mg THC, 10-30 mg ANEB-001, Simultaneous (pooled), p = 0.0013) was −30.0% and the “Heart Rate (supine) (bpm)” value ([2]; 21 mg THC, 10-30 mg ANEB-001, Simultaneous (pooled), p = 0.8247) was 0.6 bpm. For the same compound, the “VAS Feeling High log(mm)” value ([2]; 21 mg THC, 10-30 mg ANEB-001, Simultaneous (pooled), p = <0.0001) was −0.7364 log(mm), the THC-induced body sway ([2]; 21 mg or 30 mg THC, coadministration or Compound 1 after THC) was “significant reduction in body sway” and the “VAS bad drug effect” value ([2]; 30 mg THC, 10 mg ANEB-001, 1 hr Delay, p = 0.0003) was “Reversed”. The “VAS External Perception log(mm)” value [2, 5] was “Reversed”, the “VAS Internal Perception log(mm)” value [2, 5] was “Reversed” and the “VAS Alertness (mm)” value ([2]; 30 mg THC, 10 mg ANEB-001, 1 hr Delay, p = 0.0042) was 10.8 mm. For the same compound, the “VAS good drug effect” value ([2]; 30 mg THC, 10 mg ANEB-001, 1 hr Delay, p = 0.0112) was “Reversed”, the “Body Sway (mm)” value ([2]; 30 mg THC, 10 mg ANEB-001, 1 hr Delay, p = 0.0196) was −34.8% and the “Heart Rate (supine) (bpm)” value ([2]; 30 mg THC, 10 mg ANEB-001, 1 hr Delay, p = 0.1119) was 6.7 bpm. For the same compound, the “Responder Rate (VAS Feeling High)” value [2, 6] was “Reversed”, the “VAS Feel drug effect” value [2, 6] was “Reversed” and the “VAS Feeling High log(mm)” value [2, 6] was −0.8581 log(mm). The “Responder Rate (VAS Feeling High)” value ([2]; 21-30 mg THC, 10 mg ANEB-001, 1 hr Delay (pooled), p = 0.0002) was “Reversed”, the “VAS Feel drug effect” value ([2]; 21-30 mg THC, 10 mg ANEB-001, 1 hr Delay (pooled), p = 0.0003) was “Reversed” and the “Body Sway (mm)” value ([2]; 21-30 mg THC, 10 mg ANEB-001, 1 hr Delay (pooled), p = 0.0014) was −32.4%. The “VAS good drug effect” value ([2]; 21-30 mg THC, 10 mg ANEB-001, 1 hr Delay (pooled), p = 0.0021) was “Reversed”, the “VAS Alertness (mm)” value ([2]; 21-30 mg THC, 10 mg ANEB-001, 1 hr Delay (pooled), p = 0.0024) was 11.3 mm and the “VAS Internal Perception log(mm)” value ([2]; 21-30 mg THC, 10 mg ANEB-001, 1 hr Delay (pooled), p = 0.0040) was “Reversed”. For the same compound, the “Heart Rate (supine) (bpm)” value ([2]; 21-30 mg THC, 10 mg ANEB-001, 1 hr Delay (pooled), p = 0.0125) was −8.1 bpm, the “VAS bad drug effect” value ([2]; 21-30 mg THC, 10 mg ANEB-001, 1 hr Delay (pooled), p = 0.0274) was “Reversed” and the “VAS External Perception log(mm)” value [2, 7] was “Reversed”. The “VAS Feeling High log(mm)” value [2, 7] was −0.7028 log(mm), the “VAS drug effects (feeling any drug effect)” value ([2]; Compound 1 one hour after THC, vs THC alone) was “highly significant reduction in feeling any drug effect” and the “Proportion of responders (reduction in feeling high)” value ([2]; THC 21 or 30 mg, 10 mg or 30 mg Compound 1, vs THC alone) was “highly significant increase in the proportion of responders”. The VAS alertness ([2]; coadministration or Compound 1 after THC, vs THC alone) was “significant reduction in VAS alertness”, the “Recovery time (feeling high time course)” value ([2]; coadministration or Compound 1 one hour after THC) was “reduced recovery time by several hours” and the VAS feeling high ([2]; coadministration or Compound 1 one hour after THC, vs THC alone, overall p<0.0001) was “highly significant reduction in feeling high”. For the same compound, the “All primary outcomes, pre-specified pooled analysis” value ([2]; combined 21 mg or 30 mg THC, 10 mg Compound 1 one hour after THC) was “achieved statistical significance on all primary outcomes” and the “Key psychotropic effects of THC” value ([2]; single oral 10 mg Compound 1, 1 hour after THC challenge, THC doses as high as 30 mg) was “rapidly reversed key psychotropic effects of THC”.
